Key:
[1] = system: ABUTH; test: Pre-emergence action against ABUTH; format: in vivo, Abutilon theophrasti; settings: pre-emergence, dosage 320 g/ha, scored visually after 3 weeks vs untreated controls
Text: (§1) Seeds of monocotyledonous and dicotyledonous weed plants and crop plants are laid out in sandy loam soil in wood-fiber pots and covered with soil. The compounds of the invention, formulated in the form of wettable powders (WP) or as emulsion concentrates (EC), are then applied to the surface of the covering soil in the form of an aqueous suspension or emulsion at a water application rate equating to […], with addition of 0.2% wetting agent. After the treatment, the pots are placed in a greenhouse and kept under good growth conditions for the trial plants. The damage to the test plants is scored visually after a test period of 3 weeks by comparison with untreated controls (herbicidal activity in percent (%): 100% activity=the plants have died, 0% activity=like control plants).

[2] = system: AMARE; test: Pre-emergence action against AMARE; format: in vivo, Amaranthus retroflexus; settings: pre-emergence, dosage 320 g/ha, scored visually after 3 weeks vs untreated controls
Text: as §1

[3] = system: STEME; test: Pre-emergence action against STEME; format: in vivo, Stellaria media; settings: Dosage 320 g/ha, pre-emergence
Text: as §1

[4] = system: ABUTH; test: Post-emergence action against ABUTH; format: in vivo, Abutilon theophrasti; settings: post-emergence, dosage 80 g/ha, visual assessment about 3 weeks after treatment vs untreated controls
Method: (§2) Seeds of monocotyledonous and dicotyledonous weed and crop plants are laid out in sandy loam soil in wood-fiber pots, covered with soil and cultivated in a greenhouse under good growth conditions. 2 to 3 weeks after sowing, the test plants are treated at the one-leaf stage. The compounds of the invention, formulated in the form of wettable powders (WP) or as emulsion concentrates (EC), are then sprayed onto the green parts of the plants in the form of an aqueous suspension or emulsion at a water application rate equating to […], with addition of 0.2% wetting agent. After the test plants have been left to stand in the greenhouse under optimal growth conditions for about 3 weeks, the action of the preparations is assessed visually in comparison to untreated controls (herbicidal action in percent (%): 100% activity=the plants have died, 0% activity=like control plants). […] At the same time, inventive compounds leave Gramineae crops such as barley, wheat, rye, millet/Sorghum, corn or rice virtually undamaged when applied post-emergence, even at high active ingredient dosages. In addition, some substances are also harmless to dicotyledonous crops such as soya, cotton, oilseed rape, sugar beet or potatoes. Some of the compounds according to the invention have high selectivity and are therefore suitable for controlling unwanted vegetation in agricultural crops by the post-emergence method. The data of Tables B18 to B34 below illustrate, in an exemplary manner, the […] herbicidal action of the compounds according to the invention, the herbicidal activity being stated in percent.

[5] = system: AMARE; test: Post-emergence action against AMARE; format: in vivo, Amaranthus retroflexus; settings: post-emergence, dosage 80 g/ha, visual assessment about 3 weeks after treatment vs untreated controls; for pest or weed control at 80 g/ha: Amaranthus retroflexus, 504 h, read-out: Post-emergence action against AMARE (herbicidal action in percent)
Method: as §2

[6] = system: STEME; test: Post-emergence action against STEME; format: in vivo, Stellaria media; settings: post-emergence, dosage 80 g/ha
Method: as §2

[7] = system: VIOTR; test: Pre-emergence action against VIOTR; format: in vivo, Viola tricolor; settings: Dosage 320 g/ha, pre-emergence
Text: as §1

[8] = system: PHBPU; test: Post-emergence action against PHBPU; format: in vivo, Pharbitis purpurea; settings: post-emergence, dosage 80 g/ha
Method: as §2

[9] = system: VIOTR; test: Post-emergence action against VIOTR; format: in vivo, Viola tricolor; settings: post-emergence, dosage 80 g/ha
Method: as §2

[10] = system: MATIN; test: Pre-emergence action against MATIN; format: in vivo, Matricaria inodora; settings: Dosage 320 g/ha, pre-emergence
Text: as §1

[11] = system: ALOMY; test: Pre-emergence action against ALOMY; format: in vivo, Alopecurus myosuroides; settings: dosage 320 g/ha; pre-emergence; scored visually after 3 weeks vs untreated controls; 100% = plants have died, 0% = like control plants
Text: as §1

[12] = system: ECHCG; test: Pre-emergence action against ECHCG; format: in vivo, Echinochloa crus-galli; settings: pre-emergence, dosage 320 g/ha, scored visually after 3 weeks vs untreated controls
Text: as §1

[13] = system: VERPE; test: Pre-emergence action against VERPE; format: in vivo, Veronica persica; settings: Dosage 320 g/ha, pre-emergence
Text: as §1

[14] = system: ECHCG; test: Post-emergence action against ECHCG; format: in vivo, Echinochloa crus-galli; settings: post-emergence, dosage 80 g/ha, visual assessment about 3 weeks after treatment vs untreated controls
Method: as §2

[15] = system: MATIN; test: Post-emergence action against MATIN; format: in vivo, Matricaria inodora; settings: post-emergence, dosage 80 g/ha, visual assessment about 3 weeks after treatment vs untreated controls
Method: as §2

[16] = system: VERPE; test: Post-emergence action against VERPE; format: in vivo, Veronica persica; settings: dosage 80 g/ha
Method: as §2

[17] = system: SETVI; test: Pre-emergence action against SETVI; format: in vivo, Setaria viridis; settings: pre-emergence, dosage 320 g/ha, scored visually after 3 weeks vs untreated controls
Text: as §1

| Structure (SMILES) | Pre-emergence action against ABUTH (herbicidal activity) [1] | Pre-emergence action against AMARE (herbicidal activity) [2] | Pre-emergence action against STEME [3] | Post-emergence action against ABUTH (herbicidal action in percent) [4] | Post-emergence action against AMARE (herbicidal action in percent) [5] | Post-emergence action against STEME [6] | Pre-emergence action against VIOTR [7] | Post-emergence action against PHBPU [8] | Post-emergence action against VIOTR [9] | Pre-emergence action against MATIN [10] | Pre-emergence action against VERPE [13] | Post-emergence action against MATIN (herbicidal action in percent) [15] | also measured |
| --- | --- | --- | --- | --- | --- | --- | --- | --- | --- | --- | --- | --- | --- |
| CCCn1nnnc1NC(=O)c1ccc(C(F)(F)F)c(C(=O)C2CCCCC2)c1Cl [3-155] | 100% | 90% | 100% | 80% | 90% | 80 | – | – | – | – | – | – | – |
| CCn1nnnc1NC(=O)c1ccc(C(F)(F)F)c(C(=O)C(F)(F)F)c1Cl [2-162] | 100% | 90% | 100% | – | 90% | 100 | 100% | 100 | 100 | – | – | – | – |
| CCn1nnnc1NC(=O)c1ccc(C(F)(F)F)c(C(=O)C2CCCC2)c1Cl [2-154] | – | – | – | 90% | 100% | 90 | – | 90 | – | – | – | – | – |
| COc1ccc(C(=O)c2c(Cl)ccc(C(=O)Nc3nnnn3C)c2Cl)cc1 [1-283] | 90% | – | – | – | – | 80 | – | – | – | – | – | – | – |
| Cn1nnnc1NC(=O)c1ccc(Cl)c(C(=O)c2cccs2)c1Cl [1-282] | – | – | – | – | – | – | – | – | – | – | – | – | pest or weed control at 320 g/ha ([1]; Abutilon theophrasti, 504 h, read-out: Pre-emergence action against ABUTH (herbicidal activity)): 90%; pest or weed control at 320 g/ha ([2]; Amaranthus retroflexus, 504 h, read-out: Pre-emergence action against AMARE (herbicidal activity)): 80%; pest or weed control at 320 g/ha ([10]; Tripleurospermum inodorum, 504 h): 80%; pest or weed control at 80 g/ha [5]: 80%; pest or weed control at 80 g/ha ([6]; Stellaria media, 504 h): 80% |
| CCCn1nnnc1NC(=O)c1ccc(C(F)(F)F)c(C(=O)c2cc(F)cc(F)c2)c1Cl [3-282] | – | – | – | 80% | 80% | – | 90% | 90 | – | – | – | – | – |
| CCn1nnnc1NC(=O)c1ccc(Cl)c(C(=O)c2ccc(OC)cc2)c1Cl [2-283] | – | – | 90% | 80% | – | – | – | – | – | – | – | – | – |
| CCCn1nnnc1NC(=O)c1ccc(C)c(C(=O)CC)c1Cl [3-135] | – | 90% | 90% | – | 90% | 100 | – | 90 | – | 90% | 80% | 80% | Pre-emergence action against ALOMY (herbicidal activity in percent) [11]: 80%; Pre-emergence action against ECHCG (herbicidal activity) [12]: 90%; Post-emergence action against ECHCG (herbicidal action in percent) [14]: 80% |
| CC(=O)c1c(C(F)(F)F)ccc(C(=O)Nc2nnnn2C)c1C [1-14] | – | – | – | – | – | – | – | – | – | – | – | – | pest or weed control at 320 g/ha ([13]; Veronica persica, 504 h): 90%; pest or weed control at 80 g/ha ([4]; Abutilon theophrasti, 504 h, read-out: Post-emergence action against ABUTH (herbicidal action in percent)): 90%; pest or weed control at 80 g/ha [5]: 80%; pest or weed control at 80 g/ha ([16]; Veronica persica, 504 h): 80% |
| CCCn1nnnc1NC(=O)c1ccc(C(F)(F)F)c(C(=O)C(C)C)c1Cl [3-140] | 100% | 100% | 100% | 100% | 80% | 90 | 100% | 90 | 100 | 100% | 100% | 90% | Pre-emergence action against ALOMY (herbicidal activity in percent) [11]: 90%; Pre-emergence action against ECHCG (herbicidal activity) [12]: 90%; SETVI (Table B8, pre-emergence herbicidal activity) [17]: 90%; Post-emergence action against ECHCG (herbicidal action in percent) [14]: 100% |
| Cn1nnnc1NC(=O)c1ccc(Cl)c(C(=O)C2CCCC2)c1Cl [1-281] | – | 90% | 80% | – | 90% | 100 | 100% | 90 | 100 | 90% | 100% | 80% | Post-emergence action against VERPE [16]: 80 |
| CCn1nnnc1NC(=O)c1ccc(Cl)c(C(=O)c2cccs2)c1Cl [2-282] | 100% | 80% | 80% | – | – | – | – | – | – | – | – | – | – |
| CCn1nnnc1NC(=O)c1ccc(Cl)c(C(=O)C2CCCC2)c1Cl [2-281] | – | 90% | 90% | – | 90% | 100 | 100% | 100 | 90 | 90% | 90% | 80% | Post-emergence action against VERPE [16]: 80 |

— US11051515B2, “3-acyl-benzamides and their use as herbicides” (Bayer Aktiengesellschaft, priority 2017, dated 2021)
